Results from publication PMC12504763, “Antiproliferation, 3D-multicellular spheroid and VEGFR-2 inhibitory properties of spiroindolin-2-ones with phosphonate function” (Scientific Reports, 2025).
Where two headings read alike, the source gives them in different places.

What was measured:
[1] = system: RPE1 (normal human immortalized retinal pigment epithelial cell line); experiment: cells; format: cell-based; conditions: Homo sapiens, RPE-1; MTT, normal RPE1 cell; read-out: IC50, μM ± SEM RPE1
TNF-α [2] = experiment: TNF-α inhibitory properties (ELISA), MCF7 cell lysate; format: cell-based, human; conditions: at 10 μM; for TNF-α pg/mL (± SEM) MCF7: control 83.26 ± 1.1
TNF-α [3] = experiment: TNF-α inhibitory properties (ELISA), HCT116 cell lysate; format: cell-based, human; conditions: at 10 μM; for TNF-α pg/mL (± SEM) HCT116: control 95.74 ± 0.5
[4] = system: PaCa2 (pancreatic) cancer cell line; experiment: 2D-monolayer antiproliferation (MTT) against PaCa2; format: cell-based, human; conditions: for 1/(observed property): 1/observed IC50 (μM), PaCa2; for IC50: Homo sapiens, PaCa-2, MTT, 72 h incubation, PaCa2 pancreatic, read-out: IC50, μM ± SEM PaCa2; for SI (selectivity index) PaCa2: IC50 of RPE1 normal cell/IC50 of PaCa2
TNF-α [5] = experiment: TNF-α inhibitory properties (ELISA), PaCa2 cell lysate; format: cell-based, human; conditions: at 10 μM; for TNF-α pg/mL (± SEM) PaCa2: control 111.8 ± 2.0
COX-2 = target: T1, COX-2 (Homo sapiens, UniProt P35354); experiment: biochemical; conditions: for inhibition at 10 µM: 3 replicates, read-out: % Inhibition of COX-2 ± SEM
T1 construct: purchased BioVision incorporated USA K548–100
T1 sequence (P35354 18-604): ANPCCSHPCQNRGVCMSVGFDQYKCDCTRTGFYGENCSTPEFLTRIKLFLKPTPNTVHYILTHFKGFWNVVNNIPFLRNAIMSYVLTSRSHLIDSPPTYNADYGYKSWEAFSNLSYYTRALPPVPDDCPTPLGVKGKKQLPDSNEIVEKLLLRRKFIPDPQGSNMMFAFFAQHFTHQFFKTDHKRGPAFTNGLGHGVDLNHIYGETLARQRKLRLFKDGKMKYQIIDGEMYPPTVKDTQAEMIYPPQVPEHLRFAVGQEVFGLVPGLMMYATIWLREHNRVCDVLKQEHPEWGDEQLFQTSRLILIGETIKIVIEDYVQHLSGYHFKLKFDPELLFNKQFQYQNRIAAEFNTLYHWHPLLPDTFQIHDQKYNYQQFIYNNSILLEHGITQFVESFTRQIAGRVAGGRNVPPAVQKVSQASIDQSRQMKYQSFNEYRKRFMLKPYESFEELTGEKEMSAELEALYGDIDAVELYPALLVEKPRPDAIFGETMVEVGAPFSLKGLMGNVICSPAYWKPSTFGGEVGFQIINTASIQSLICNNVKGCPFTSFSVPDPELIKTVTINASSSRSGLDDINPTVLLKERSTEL

[6] = system: HCT116 (colon) cancer cell line; experiment: 2D-monolayer antiproliferation (MTT) against HCT116; format: cell-based, human; conditions: for IC50: Homo sapiens, HCT-116; for SI (selectivity index) HCT116: IC50 of RPE1 normal cell/IC50 of HCT116
VEGFR-2 [7] = target: T2, VEGFR-2 (Homo sapiens, UniProt P35968); experiment: cell-based; format: cell-based; conditions: for inhibition at 10 µM: PaCa-2, PaCa2; for VEGFR-2 pg/mL ± SEM PaCa2: at 10 μM, control 326.80 ± 1.9
T2 construct: endogenous in cells; host or cells: HCT116, PaCa2, MCF7 (human cancer cell lines, ATCC origin)
T2 sequence (P35968 20-1356): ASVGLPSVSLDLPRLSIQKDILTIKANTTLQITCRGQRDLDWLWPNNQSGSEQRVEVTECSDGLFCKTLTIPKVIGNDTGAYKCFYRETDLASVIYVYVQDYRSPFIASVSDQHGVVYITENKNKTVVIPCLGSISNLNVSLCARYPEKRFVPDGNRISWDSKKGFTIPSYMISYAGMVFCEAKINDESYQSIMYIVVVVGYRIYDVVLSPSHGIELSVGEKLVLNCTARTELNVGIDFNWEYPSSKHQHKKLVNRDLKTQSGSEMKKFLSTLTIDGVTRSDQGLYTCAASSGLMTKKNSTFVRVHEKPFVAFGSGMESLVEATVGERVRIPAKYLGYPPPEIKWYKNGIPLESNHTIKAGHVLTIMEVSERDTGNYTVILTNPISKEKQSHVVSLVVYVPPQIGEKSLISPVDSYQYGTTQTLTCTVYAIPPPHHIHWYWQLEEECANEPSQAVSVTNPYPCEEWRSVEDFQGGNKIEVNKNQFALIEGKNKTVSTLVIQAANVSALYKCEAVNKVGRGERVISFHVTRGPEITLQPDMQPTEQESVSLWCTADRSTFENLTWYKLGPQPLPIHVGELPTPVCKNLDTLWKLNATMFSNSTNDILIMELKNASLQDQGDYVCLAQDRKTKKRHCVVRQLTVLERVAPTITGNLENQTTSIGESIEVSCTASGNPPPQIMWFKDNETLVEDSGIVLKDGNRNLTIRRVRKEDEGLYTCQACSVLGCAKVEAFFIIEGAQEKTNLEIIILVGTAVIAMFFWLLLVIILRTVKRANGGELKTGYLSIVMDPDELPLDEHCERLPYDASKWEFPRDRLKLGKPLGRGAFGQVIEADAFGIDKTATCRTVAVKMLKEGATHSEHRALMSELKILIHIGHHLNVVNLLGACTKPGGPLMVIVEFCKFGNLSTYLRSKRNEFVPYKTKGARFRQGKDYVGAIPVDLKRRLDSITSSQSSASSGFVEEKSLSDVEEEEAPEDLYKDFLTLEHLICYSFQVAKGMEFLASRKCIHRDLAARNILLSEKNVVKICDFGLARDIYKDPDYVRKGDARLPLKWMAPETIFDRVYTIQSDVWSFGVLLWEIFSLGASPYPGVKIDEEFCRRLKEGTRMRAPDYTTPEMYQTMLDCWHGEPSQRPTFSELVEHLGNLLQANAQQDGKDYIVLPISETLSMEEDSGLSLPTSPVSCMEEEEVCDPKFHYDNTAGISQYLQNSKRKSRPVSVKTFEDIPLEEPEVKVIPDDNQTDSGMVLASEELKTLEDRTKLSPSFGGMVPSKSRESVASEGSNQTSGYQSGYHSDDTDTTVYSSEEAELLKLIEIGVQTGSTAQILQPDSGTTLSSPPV

COX-1 = target: T3, COX-1 (Ovis aries, UniProt P05979); experiment: biochemical; conditions: 3 replicates, read-out: % Inhibition of COX-1 ± SEM
T3 construct: purchased BioVision incorporated USA K548–100
T3 sequence (P05979 25-600): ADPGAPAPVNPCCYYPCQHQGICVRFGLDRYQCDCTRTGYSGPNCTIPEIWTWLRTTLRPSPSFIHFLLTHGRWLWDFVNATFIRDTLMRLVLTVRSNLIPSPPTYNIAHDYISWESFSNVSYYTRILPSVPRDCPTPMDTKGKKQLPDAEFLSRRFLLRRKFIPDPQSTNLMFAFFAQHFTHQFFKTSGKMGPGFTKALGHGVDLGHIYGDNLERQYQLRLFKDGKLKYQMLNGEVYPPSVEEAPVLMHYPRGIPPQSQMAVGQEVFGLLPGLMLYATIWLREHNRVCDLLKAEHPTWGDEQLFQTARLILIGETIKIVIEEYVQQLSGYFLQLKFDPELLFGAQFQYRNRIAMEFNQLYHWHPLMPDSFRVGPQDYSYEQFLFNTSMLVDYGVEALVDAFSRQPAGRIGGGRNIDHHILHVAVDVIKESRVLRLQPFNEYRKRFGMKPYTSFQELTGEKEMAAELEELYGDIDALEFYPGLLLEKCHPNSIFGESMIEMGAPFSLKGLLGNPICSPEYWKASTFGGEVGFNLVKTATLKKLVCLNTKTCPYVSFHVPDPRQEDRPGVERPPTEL

[8] = system: A549 (lung) cancer cell line; experiment: 2D-monolayer antiproliferation (MTT) against A549; format: cell-based, human; conditions: for IC50: Homo sapiens, MTT, 72 h incubation, A549 lung, read-out: IC50, μM ± SEM A549; for SI (selectivity index) A549: IC50 of RPE1 normal cell/IC50 of A549
VEGFR-2 [9] = target: T2, VEGFR-2; experiment: cell-based; format: cell-based; conditions: for inhibition at 10 µM: HCT-116, HCT116; for VEGFR-2 pg/mL ± SEM HCT116: at 10 μM, control 317.80 ± 3.5
[10] = system: MCF7 (breast) cancer cell line; experiment: 2D-monolayer antiproliferation (MTT) against MCF7; format: cell-based, human; conditions: for IC50: Homo sapiens, MTT, 72 h incubation, MCF7 breast, read-out: IC50, μM ± SEM MCF7; for SI (selectivity index) MCF7: IC50 of RPE1 normal cell/IC50 of MCF7
CAM blood vessel network = experiment: Chick chorioallantoic membrane (CAM) anti-angiogenic assay; format: in vivo, chicken; conditions: CAM test, 20 μL of 660 μM, 3 days; control 459.7 ± 13.8
Experimental: CAM assay is an established xenograft technique for investigating the angiogenic effect due to the high resemblance of the human vascularized epithelium basement membrane with that of the chorioallantoic layer containing mainly type IV collagen[84]–[86].
Fig. 10 Images of light microscopy for anti-angiogenic evaluation of the tested compounds using CAM assay. […] The glass slide was placed on the surface of the CAM blood vessel network and left in an incubator at 37 °C for 3 days. The CAM blood vessel network was carefully cut and imaged under a light microscope (40 × magnification).
Fertilized white chicken eggs were incubated in a 37 °C incubator with constant humidity. On day 8, a small squared window was opened allowing the detachment of the growing CAM and shell. The opening was covered with an elastic bandage. […] The CAM was then sealed with a bandage and placed back in the incubator. CAMs were examined daily until day 12 (3 days), the vascularized membranes were then cut around the glass slide and fixed in 5% formalin. Images were taken with an Evos microscope at 40x and 100x magnification^9. Main blood vessel in the microscopic images of controls and samples were quantified by imageJ and analyzed for significant differences (n = 4).

VEGFR-2 [11] = target: T2, VEGFR-2; experiment: cell-based; format: cell-based; conditions: for inhibition at 10 µM: MCF7; for VEGFR-2 pg/mL ± SEM MCF7: at 10 μM, control 258.70 ± 2.3
[12] = MTT, 72 h incubation, HCT116 colon, read-out: IC50, μM ± SEM HCT116
[13] = log of observed IC50 (μM), HCT116, read-out: Log(observed property) (converted)

## CCOP(=O)(OCC)N1C/C(=C\c2ccc(C)cc2)C(=O)C2(C1)C(c1ccc(C)cc1)CN(C)C21C(=O)Nc2ccccc21 (stereo not shown) [Compound 17m, Diethyl (E)-[1′-methyl-5′′-(4-methylbenzylidene)-2,4′′-dioxo-4′-(p-tolyl)dispiro[indoline-3,2′-pyrrolidine-3′,3′′-piperidin]-1′′-yl]phosphonate]
[1]
  IC50: 9.57 ± 0.537 µM
TNF-α [2]
  TNF-α % inhibition MCF7: 68.5%
  TNF-α pg/mL (± SEM) MCF7: 26.24 ± 2.2 pg/mL
TNF-α [3]
  TNF-α % inhibition HCT116: 77.4%
  TNF-α pg/mL (± SEM) HCT116: 21.65 ± 0.9 pg/mL
[4]
  1/(observed property): 0.1784
  IC50: 5.61 ± 0.063 µM
  SI (selectivity index) PaCa2: 1.7
TNF-α [5]
  TNF-α % inhibition PaCa2: 70.6%
  TNF-α pg/mL (± SEM) PaCa2: 32.83 ± 1.3 pg/mL
COX-2
  inhibition at 10 µM: 60.9 ± 1.1%
COX-2; at 10 μM
  SI (selectivity index, COX-2/COX-1): 0.93
[6]; [12]
  IC50: 3.44 ± 0.083 µM
[6]; [13]
  IC50: 3.44 µM
[6]
  SI (selectivity index) HCT116: 2.8
VEGFR-2 [7]
  inhibition at 10 µM: 92.2%
  VEGFR-2 pg/mL ± SEM PaCa2: 25.36 ± 1.0 pg/mL
COX-1
  inhibition at 10 µM: 58.3 ± 3%
[8]
  IC50: 8.18 ± 0.435 µM
  SI (selectivity index) A549: 1.2
VEGFR-2 [9]
  inhibition at 10 µM: 86%
  VEGFR-2 pg/mL ± SEM HCT116: 44.50 ± 0.5 pg/mL
[10]
  IC50: 4.21 ± 0.085 µM
  SI (selectivity index) MCF7: 2.3
CAM blood vessel network
  Diameter of blood vessel (μm ± SEM): 85.7 ± 2.6 μm
VEGFR-2 [11]
  inhibition at 10 µM: 83.5%
  VEGFR-2 pg/mL ± SEM MCF7: 42.80 ± 0.4 pg/mL

## CCOP(=O)(OCC)N1C/C(=C\c2ccccc2)C(=O)C2(C1)C(c1ccccc1)CN(C)C21C(=O)Nc2ccccc21 (stereo not shown) [Compound 17a, Diethyl (E)-(5′′-benzylidene-1′-methyl-2,4′′-dioxo-4′-phenyldispiro[indoline-3,2′-pyrrolidine-3′,3′′-piperidin]-1′′-yl)phosphonate]
[1]
  IC50: 16.8 ± 0.516 µM
TNF-α [2]
  TNF-α % inhibition MCF7: 78.1%
  TNF-α pg/mL (± SEM) MCF7: 18.25 ± 1.1 pg/mL
TNF-α [3]
  TNF-α % inhibition HCT116: 74.0%
  TNF-α pg/mL (± SEM) HCT116: 24.86 ± 0.8 pg/mL
[4]
  1/(observed property): 0.0774
  IC50: 12.9 ± 0.559 µM
  SI (selectivity index) PaCa2: 1.3
TNF-α [5]
  TNF-α pg/mL (± SEM) PaCa2: 24.8 ± 1.5 pg/mL
COX-2
  inhibition at 10 µM: 64.9 ± 2.8%
[6]; [12]
  IC50: 7.97 ± 0.338 µM
[6]; [13]
  IC50: 7.97 µM
[6]
  SI (selectivity index) HCT116: 2.1
VEGFR-2 [7]
  inhibition at 10 µM: 94.1%
  VEGFR-2 pg/mL ± SEM PaCa2: 19.26 ± 1.0 pg/mL
COX-1
  inhibition at 10 µM: 49.8 ± 1.8%
[8]
  IC50: 14.5 ± 0.259 µM
  SI (selectivity index) A549: 1.2
VEGFR-2 [9]
  inhibition at 10 µM: 88%
  VEGFR-2 pg/mL ± SEM HCT116: 38.20 ± 1.6 pg/mL
[10]
  IC50: 5.86 ± 0.259 µM
  SI (selectivity index) MCF7: 2.9
CAM blood vessel network
  Diameter of blood vessel (μm ± SEM): 80.7 ± 3.7 μm
VEGFR-2 [11]
  inhibition at 10 µM: 80.1%
  VEGFR-2 pg/mL ± SEM MCF7: 51.50 ± 0.8 pg/mL
